How the values were obtained:
DCAMKL2 = DCAMKL2 (Homo sapiens (Human), UniProt Q8N568); test: KINOMEscan; assay type: binding; details: 1 uM
p38-alpha = p38-alpha (Homo sapiens (Human), UniProt Q16539); test: KINOMEscan; assay type: binding; details: 1 uM
SYK = SYK (Homo sapiens (Human), UniProt P43405); test: KINOMEscan; assay type: binding; details: 1 uM
HUNK = HUNK (Homo sapiens (Human), UniProt P57058); test: KINOMEscan; assay type: binding; details: 1 uM
IKK-beta = IKK-beta (Homo sapiens (Human), UniProt O14920); test: KINOMEscan; assay type: binding; details: 1 uM
PIM1 = PIM1 (Homo sapiens (Human), UniProt P11309); test: KINOMEscan; assay type: binding; details: 1 uM
CDKL2 = CDKL2 (Homo sapiens (Human), UniProt Q92772); test: KINOMEscan; assay type: binding; details: 1 uM
RET (M918T) = RET (M918T) (Homo sapiens (Human), UniProt P07949, M918T); test: KINOMEscan; assay type: binding; details: 1 uM
[1] = target: RPS6KA4 (Kin.Dom.2-C-terminal) (Homo sapiens (Human), UniProt O75676); test: KINOMEscan; assay type: binding; details: 1 uM
PAK7 = PAK7 (Homo sapiens (Human), UniProt Q9P286); test: KINOMEscan; assay type: binding; details: 1 uM
SIK1 = SIK1 (Homo sapiens (Human), UniProt P57059); test: Percent activity against SIK1 at 1 μM; assay type: biochemical
Chain of SIK1 (P57059 whole entry): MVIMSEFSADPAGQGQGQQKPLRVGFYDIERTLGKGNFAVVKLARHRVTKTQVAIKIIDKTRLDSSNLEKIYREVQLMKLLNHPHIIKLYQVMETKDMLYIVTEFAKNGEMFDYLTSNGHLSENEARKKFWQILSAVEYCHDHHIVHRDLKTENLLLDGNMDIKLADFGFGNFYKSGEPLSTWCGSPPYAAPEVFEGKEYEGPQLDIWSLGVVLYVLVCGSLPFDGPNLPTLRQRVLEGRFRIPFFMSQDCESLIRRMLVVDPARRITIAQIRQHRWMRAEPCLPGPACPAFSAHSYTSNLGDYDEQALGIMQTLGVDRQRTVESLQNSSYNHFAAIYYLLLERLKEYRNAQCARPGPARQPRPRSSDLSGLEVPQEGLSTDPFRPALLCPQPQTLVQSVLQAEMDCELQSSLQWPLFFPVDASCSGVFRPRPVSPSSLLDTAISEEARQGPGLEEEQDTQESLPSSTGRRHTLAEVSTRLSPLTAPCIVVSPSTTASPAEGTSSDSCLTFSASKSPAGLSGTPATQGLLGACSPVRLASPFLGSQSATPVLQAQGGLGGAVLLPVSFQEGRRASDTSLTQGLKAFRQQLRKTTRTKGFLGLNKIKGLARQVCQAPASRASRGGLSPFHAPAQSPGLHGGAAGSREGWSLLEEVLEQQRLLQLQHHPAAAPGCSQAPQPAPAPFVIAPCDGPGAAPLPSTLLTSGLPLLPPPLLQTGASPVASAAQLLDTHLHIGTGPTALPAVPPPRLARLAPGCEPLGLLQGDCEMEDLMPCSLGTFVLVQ

LRRK2 (G2019S) = LRRK2 (G2019S) (Homo sapiens (Human), UniProt Q5S007, G2019S); test: KINOMEscan; assay type: binding; details: 1 uM
FAK = FAK (Homo sapiens (Human), UniProt Q05397); test: KINOMEscan; assay type: binding; details: 1 uM
CDK4-cyclinD1 = CDK4-cyclinD1 (Homo sapiens (Human), UniProt P11802); test: KINOMEscan; assay type: binding; details: 1 uM
PIK3CA (H1047L) = PIK3CA (H1047L) (Homo sapiens (Human), UniProt P42336, H1047L); test: KINOMEscan; assay type: binding; details: 1 uM
TRKC = TRKC (Homo sapiens (Human), UniProt Q16288); test: KINOMEscan; assay type: binding; details: 1 uM
TAOK2 = TAOK2 (Homo sapiens (Human), UniProt Q9UL54); test: KINOMEscan; assay type: binding; details: 1 uM
PRKD2 = PRKD2 (Homo sapiens (Human), UniProt Q9BZL6); test: KINOMEscan; assay type: binding; details: 1 uM
PFCDPK1 (P. falciparum) = PFCDPK1 (P. falciparum) (Plasmodium falciparum (isolate 3D7), UniProt P62344); test: KINOMEscan; assay type: binding; details: 1 uM
MLK2 = MLK2 (Homo sapiens (Human), UniProt Q02779); test: KINOMEscan; assay type: binding; details: 1 uM
GRK1 = GRK1 (Homo sapiens (Human), UniProt Q15835); test: KINOMEscan; assay type: binding; details: 1 uM
CDK3 = CDK3 (Homo sapiens (Human), UniProt Q00526); test: KINOMEscan; assay type: binding; details: 1 uM
SRPK3 = SRPK3 (Homo sapiens (Human), UniProt Q9UPE1); test: KINOMEscan; assay type: binding; details: 1 uM
Chain of SRPK3 (Q9UPE1 whole entry): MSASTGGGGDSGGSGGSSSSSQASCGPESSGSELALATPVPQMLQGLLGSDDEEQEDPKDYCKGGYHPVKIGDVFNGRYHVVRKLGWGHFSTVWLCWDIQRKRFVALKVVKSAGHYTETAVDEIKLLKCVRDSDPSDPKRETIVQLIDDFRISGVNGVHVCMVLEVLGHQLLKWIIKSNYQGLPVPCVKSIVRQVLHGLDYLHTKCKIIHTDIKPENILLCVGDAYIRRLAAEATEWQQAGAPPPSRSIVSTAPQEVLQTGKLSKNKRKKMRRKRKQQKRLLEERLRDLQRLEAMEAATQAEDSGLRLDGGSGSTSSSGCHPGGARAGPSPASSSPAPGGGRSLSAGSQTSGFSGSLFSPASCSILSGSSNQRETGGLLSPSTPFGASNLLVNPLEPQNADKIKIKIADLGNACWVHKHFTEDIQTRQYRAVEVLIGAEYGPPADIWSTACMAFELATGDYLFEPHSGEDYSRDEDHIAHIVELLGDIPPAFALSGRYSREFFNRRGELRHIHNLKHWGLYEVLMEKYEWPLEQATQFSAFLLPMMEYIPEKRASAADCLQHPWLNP

FLT3 = FLT3 (Homo sapiens (Human), UniProt P36888); test: KINOMEscan; assay type: binding; details: 1 uM
Chain of FLT3 (P36888 27-993): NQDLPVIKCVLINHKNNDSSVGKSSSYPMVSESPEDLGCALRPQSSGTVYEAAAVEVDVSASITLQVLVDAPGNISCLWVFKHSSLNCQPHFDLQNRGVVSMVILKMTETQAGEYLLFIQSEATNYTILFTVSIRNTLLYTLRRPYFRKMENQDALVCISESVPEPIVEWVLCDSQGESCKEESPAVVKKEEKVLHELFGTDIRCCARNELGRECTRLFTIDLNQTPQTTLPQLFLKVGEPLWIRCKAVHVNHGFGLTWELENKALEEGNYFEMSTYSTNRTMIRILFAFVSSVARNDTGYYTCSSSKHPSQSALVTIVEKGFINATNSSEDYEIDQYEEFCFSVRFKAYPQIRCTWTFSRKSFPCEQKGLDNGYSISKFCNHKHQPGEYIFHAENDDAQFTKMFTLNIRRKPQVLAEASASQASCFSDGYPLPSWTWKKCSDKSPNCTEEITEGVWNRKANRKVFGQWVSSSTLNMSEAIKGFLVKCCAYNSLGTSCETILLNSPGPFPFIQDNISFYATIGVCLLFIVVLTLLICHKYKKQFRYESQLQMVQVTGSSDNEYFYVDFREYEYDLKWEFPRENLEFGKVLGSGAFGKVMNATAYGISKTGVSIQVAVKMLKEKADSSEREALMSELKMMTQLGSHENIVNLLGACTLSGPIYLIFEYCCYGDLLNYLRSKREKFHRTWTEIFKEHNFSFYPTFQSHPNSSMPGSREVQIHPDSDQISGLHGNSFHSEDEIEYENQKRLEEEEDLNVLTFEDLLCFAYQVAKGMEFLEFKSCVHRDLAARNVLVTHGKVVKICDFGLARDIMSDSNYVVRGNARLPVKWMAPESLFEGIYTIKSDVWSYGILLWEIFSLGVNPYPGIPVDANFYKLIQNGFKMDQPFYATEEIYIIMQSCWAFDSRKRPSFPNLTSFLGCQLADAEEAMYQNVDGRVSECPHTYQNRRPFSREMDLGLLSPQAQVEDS

NDR2 = NDR2 (Homo sapiens (Human), UniProt Q9Y2H1); test: KINOMEscan; assay type: binding; details: 1 uM
TAOK1 = TAOK1 (Homo sapiens (Human), UniProt Q7L7X3); test: KINOMEscan; assay type: binding; details: 1 uM
Chain of TAOK1 (Q7L7X3 whole entry): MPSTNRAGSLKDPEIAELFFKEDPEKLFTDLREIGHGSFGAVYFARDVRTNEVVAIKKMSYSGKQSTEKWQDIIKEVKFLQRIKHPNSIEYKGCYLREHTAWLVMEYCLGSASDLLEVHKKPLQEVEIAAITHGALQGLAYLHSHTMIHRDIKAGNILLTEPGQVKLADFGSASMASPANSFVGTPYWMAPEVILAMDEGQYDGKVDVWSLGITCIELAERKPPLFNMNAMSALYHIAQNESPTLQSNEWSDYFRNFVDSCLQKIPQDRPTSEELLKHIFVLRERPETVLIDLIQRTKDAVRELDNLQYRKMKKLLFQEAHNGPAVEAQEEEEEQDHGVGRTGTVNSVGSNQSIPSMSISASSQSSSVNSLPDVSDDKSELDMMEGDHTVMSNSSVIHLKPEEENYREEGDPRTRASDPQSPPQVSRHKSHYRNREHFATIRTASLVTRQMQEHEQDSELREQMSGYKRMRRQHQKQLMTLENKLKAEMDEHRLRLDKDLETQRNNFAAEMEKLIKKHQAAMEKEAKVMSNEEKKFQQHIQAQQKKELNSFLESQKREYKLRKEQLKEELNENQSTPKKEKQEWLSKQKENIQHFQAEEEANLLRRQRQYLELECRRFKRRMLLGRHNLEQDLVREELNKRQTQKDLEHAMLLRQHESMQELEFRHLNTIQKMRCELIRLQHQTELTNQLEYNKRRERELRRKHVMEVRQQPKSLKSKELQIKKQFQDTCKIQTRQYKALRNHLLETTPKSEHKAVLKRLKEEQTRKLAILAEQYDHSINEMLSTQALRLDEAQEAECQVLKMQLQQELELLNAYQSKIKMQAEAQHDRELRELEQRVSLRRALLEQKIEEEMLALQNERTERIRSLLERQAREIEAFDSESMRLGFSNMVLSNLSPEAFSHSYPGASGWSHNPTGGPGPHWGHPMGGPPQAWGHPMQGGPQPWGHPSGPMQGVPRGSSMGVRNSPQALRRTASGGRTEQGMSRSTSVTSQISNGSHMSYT

CAMK2D = CAMK2D (Homo sapiens (Human), UniProt Q13557); test: KINOMEscan; assay type: binding; details: 1 uM
[2] = target: ABL1 (Y253F)-phosphorylated (Homo sapiens (Human), UniProt P00519, Y253F); test: KINOMEscan; assay type: binding; details: 1 uM
TEC = TEC (Homo sapiens (Human), UniProt P42680); test: KINOMEscan; assay type: binding; details: 1 uM
PKN2 = PKN2 (Homo sapiens (Human), UniProt Q16513); test: KINOMEscan; assay type: binding; details: 1 uM
LATS2 = LATS2 (Homo sapiens (Human), UniProt Q9NRM7); test: KINOMEscan; assay type: binding; details: 1 uM
[3] = target: RSK3 (Kin.Dom.1-N-terminal) (Homo sapiens (Human), UniProt Q15349); test: KINOMEscan; assay type: binding; details: 1 uM
ITK = ITK (Homo sapiens (Human), UniProt Q08881); test: KINOMEscan; assay type: binding; details: 1 uM
EPHB6 = EPHB6 (Homo sapiens (Human), UniProt O15197); test: KINOMEscan; assay type: binding; details: 1 uM
[4] = target: ABL1 (F317I)-nonphosphorylated (Homo sapiens (Human), UniProt P00519, F317I); test: KINOMEscan; assay type: binding; details: 1 uM
ABL2 = ABL2 (Homo sapiens (Human), UniProt P42684); test: KINOMEscan; assay type: binding; details: 1 uM
PDGFRB = PDGFRB (Homo sapiens (Human), UniProt P09619); test: KINOMEscan; assay type: binding; details: 1 uM
Chain of PDGFRB (P09619 33-1106): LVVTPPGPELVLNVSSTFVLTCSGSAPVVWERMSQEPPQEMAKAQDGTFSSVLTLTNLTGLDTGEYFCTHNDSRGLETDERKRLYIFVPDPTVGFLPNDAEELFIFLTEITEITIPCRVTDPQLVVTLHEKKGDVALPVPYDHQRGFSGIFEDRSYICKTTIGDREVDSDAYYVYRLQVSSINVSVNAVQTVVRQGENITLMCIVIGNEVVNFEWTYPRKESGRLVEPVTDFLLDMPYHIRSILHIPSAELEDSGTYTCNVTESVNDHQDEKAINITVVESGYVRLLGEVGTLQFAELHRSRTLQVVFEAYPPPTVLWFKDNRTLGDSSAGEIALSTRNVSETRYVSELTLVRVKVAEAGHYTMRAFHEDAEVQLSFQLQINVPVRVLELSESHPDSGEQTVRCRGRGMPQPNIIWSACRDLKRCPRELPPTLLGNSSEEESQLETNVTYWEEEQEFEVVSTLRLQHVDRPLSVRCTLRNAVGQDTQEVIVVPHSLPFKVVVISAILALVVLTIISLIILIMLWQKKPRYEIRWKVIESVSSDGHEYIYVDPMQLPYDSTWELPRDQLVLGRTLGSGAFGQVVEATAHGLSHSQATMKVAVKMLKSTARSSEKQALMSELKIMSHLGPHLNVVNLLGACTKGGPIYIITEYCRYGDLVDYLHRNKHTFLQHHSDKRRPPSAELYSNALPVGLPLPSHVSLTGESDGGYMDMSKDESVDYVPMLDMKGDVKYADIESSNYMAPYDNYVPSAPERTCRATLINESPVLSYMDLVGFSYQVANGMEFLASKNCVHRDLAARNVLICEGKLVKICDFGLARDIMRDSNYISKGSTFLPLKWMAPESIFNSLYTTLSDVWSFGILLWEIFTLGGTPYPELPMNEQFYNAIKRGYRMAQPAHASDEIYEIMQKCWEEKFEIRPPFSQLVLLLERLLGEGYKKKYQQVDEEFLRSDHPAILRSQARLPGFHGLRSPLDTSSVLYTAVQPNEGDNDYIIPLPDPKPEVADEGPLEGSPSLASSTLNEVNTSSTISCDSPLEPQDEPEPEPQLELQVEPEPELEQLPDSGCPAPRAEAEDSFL

TRPM6 = TRPM6 (Homo sapiens (Human), UniProt Q9BX84); test: KINOMEscan; assay type: binding; details: 1 uM
PLK2 = PLK2 (Homo sapiens (Human), UniProt Q9NYY3); test: KINOMEscan; assay type: binding; details: 1 uM
Chain of PLK2 (Q9NYY3 whole entry): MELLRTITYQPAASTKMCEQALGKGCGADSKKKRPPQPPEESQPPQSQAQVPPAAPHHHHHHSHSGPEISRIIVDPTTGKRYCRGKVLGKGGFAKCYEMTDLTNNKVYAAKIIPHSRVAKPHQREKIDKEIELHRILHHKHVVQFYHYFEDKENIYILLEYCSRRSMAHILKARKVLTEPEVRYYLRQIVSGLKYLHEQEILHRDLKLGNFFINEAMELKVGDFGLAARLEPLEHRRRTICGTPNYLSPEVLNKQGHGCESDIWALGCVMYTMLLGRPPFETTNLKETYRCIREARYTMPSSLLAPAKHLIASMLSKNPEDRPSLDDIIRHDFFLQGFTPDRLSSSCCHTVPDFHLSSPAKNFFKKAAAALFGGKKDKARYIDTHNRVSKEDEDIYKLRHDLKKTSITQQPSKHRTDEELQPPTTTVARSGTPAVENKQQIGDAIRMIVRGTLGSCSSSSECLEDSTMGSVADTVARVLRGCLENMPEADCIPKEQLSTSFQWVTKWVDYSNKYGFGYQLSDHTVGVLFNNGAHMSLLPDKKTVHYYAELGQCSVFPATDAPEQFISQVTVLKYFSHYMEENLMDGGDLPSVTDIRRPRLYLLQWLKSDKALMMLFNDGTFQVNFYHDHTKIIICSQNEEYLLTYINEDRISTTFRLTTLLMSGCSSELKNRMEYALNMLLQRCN

[5] = target: EGFR (L747-S752del, P753S) (Homo sapiens (Human), UniProt P00533, DEL747-752/P753S); test: KINOMEscan; assay type: binding; details: 1 uM

COc1ccc(N2C(=O)N(c3c(C)cccc3C)Cc3cnc(Nc4ccc(N5CCN(C)CC5)cc4)nc32)c(OC)c1 [HG-11-136-01]
KINOMEscan DCAMKL2 (DCAMKL2): 88 | KINOMEscan p38-alpha (p38-alpha): 1 | KINOMEscan SYK (SYK): 1.2 | KINOMEscan HUNK (HUNK): 28 | KINOMEscan IKK-beta (IKK-beta): 80 | KINOMEscan PIM1 (PIM1): 100 | KINOMEscan CDKL2 (CDKL2): 14 | KINOMEscan RET (M918T) (RET (M918T)): 0.05 | KINOMEscan RPS6KA4 (Kin.Dom.2-C-terminal) [1]: 90 | KINOMEscan PAK7 (PAK7): 1.3 | Enzyme activity at 1 μM (%) SIK1 (SIK1; 1 μM): 19.1% | SIK1 % ACTIVITY (SIK1; compound at 1 μM, approximate Km for ATP): 19.1% | KINOMEscan LRRK2 (G2019S) (LRRK2 (G2019S)): 6.6 | KINOMEscan FAK (FAK): 24 | KINOMEscan CDK4-cyclinD1 (CDK4-cyclinD1): 9 | KINOMEscan PIK3CA (H1047L) (PIK3CA (H1047L)): 96 | KINOMEscan TRKC (TRKC): 71 | KINOMEscan TAOK2 (TAOK2): 0 | KINOMEscan PRKD2 (PRKD2): 3.6 | KINOMEscan PFCDPK1 (P. falciparum) (PFCDPK1 (P. falciparum)): 0.1 | KINOMEscan MLK2 (MLK2): 11 | KINOMEscan GRK1 (GRK1): 77 | KINOMEscan CDK3 (CDK3): 100 | KINOMEscan SRPK3 (SRPK3): 70 | KINOMEscan FLT3 (FLT3): 34 | KINOMEscan NDR2 (NDR2): 28 | KINOMEscan TAOK1 (TAOK1): 1 | KINOMEscan CAMK2D (CAMK2D): 100 | KINOMEscan ABL1 (Y253F)-phosphorylated [2]: 0.15 | KINOMEscan TEC (TEC): 2.6 | KINOMEscan PKN2 (PKN2): 94 | KINOMEscan LATS2 (LATS2): 60 | KINOMEscan RSK3 (Kin.Dom.1-N-terminal) [3]: 40 | KINOMEscan ITK (ITK): 66 | KINOMEscan EPHB6 (EPHB6): 0.7 | KINOMEscan ABL1 (F317I)-nonphosphorylated [4]: 0 | KINOMEscan ABL2 (ABL2): 0.35 | KINOMEscan PDGFRB (PDGFRB): 0 | KINOMEscan TRPM6 (TRPM6): 69 | KINOMEscan PLK2 (PLK2): 21 | KINOMEscan EGFR (L747-S752del, P753S) [5]: 0.95

— patent publication US11725011B2, “Bicyclic urea kinase inhibitors and uses thereof” (The Broad Institute, Inc., priority 2016, dated 2023)
